EP0483928A1, “2-Saccharinylmethyl aryl carboxylates useful as proteolytic enzyme inhibitors and compositions and method of use” (STERLING WINTHROP INC., priority 1990, dated 1992)

Target: T1, human leukocyte elastase (HLE) (Homo sapiens, UniProt P08246)
T1 sequence (P08246 30-267): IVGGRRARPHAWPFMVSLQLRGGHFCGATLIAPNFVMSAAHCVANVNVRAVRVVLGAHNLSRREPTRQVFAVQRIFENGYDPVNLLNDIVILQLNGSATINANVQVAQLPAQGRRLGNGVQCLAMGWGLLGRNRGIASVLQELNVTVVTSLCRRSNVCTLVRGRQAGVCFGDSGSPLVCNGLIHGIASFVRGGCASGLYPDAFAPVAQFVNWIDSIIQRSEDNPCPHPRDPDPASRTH
Assay: Inhibition of human leukocyte elastase: rate of inactivation kon and inhibition constant Ki* (koff/kon)
Type: biochemical
Conditions: Ki* = koff/kon, calculated from measured koff and kon; not a truly reversible Ki; read-out: K*i
Protocol: Thus, instead of measuring a Ki, a Ki* is calculated which is defined as the ratio of the koff/kon, the rate of reactivation of the enzyme to the rate of inactivation of the enzyme. The values of koff and kon are measured and Ki* is then calculated.
The rate of inactivation, kon, of enzymatic activity was determined for the compounds tested by measuring the enzyme activity of an aliquot of the respective enzyme as a function of time after addition of the test compound. […] The rate of inactivation is then equal to [formula] where [I] is the concentration of the inhibiting compound.
The reactivation constant, koff, is similarly determined, and the inhibition constant, Ki*, is then calculated as Ki * = koff /kon [formula]

SMILES | Ki
COc1cc(C(C)C)c2c(c1)S(=O)(=O)N(COC(=O)c1ccccc1C(C)C)C2=O [Example 1BS] | 0.036 nM
O=C(O)CNS(=O)(=O)c1ccc(Cl)c(C(=O)OCN2C(=O)c3ccccc3S2(=O)=O)c1Cl [Example 1T] | 4 nM
CC(C)c1cc(OCC2COC(C)(C)O2)cc2c1C(=O)N(COC(=O)c1c(Cl)cccc1Cl)S2(=O)=O (stereo not shown) [Example 5C] | 0.03 nM

These reach a lower Ki. Values come first.

Ki | SMILES
0.029 nM | CC(C)c1cc2c(c3c1C(=O)N(COC(=O)c1c(Cl)ccc(S(=O)(=O)N4CCN(C)CC4)c1Cl)S3(=O)=O)OCO2 [Example 1BI]
0.029 nM | CC(C)c1cc2c(c3c1C(=O)N(COC(=O)c1c(Cl)ccc(OCCN4CCOCC4)c1Cl)S3(=O)=O)OCO2 [Example 1BJ]
0.01 nM | CC(C)c1cccc2c1C(=O)N(COC(=O)c1c(Cl)ccc(S(=O)(=O)NCC(=O)O)c1Cl)S2(=O)=O [Example 1W]
0.01 nM | CC(C)c1cccc2c1C(=O)N(COC(=O)c1c(Cl)ccc(S(=O)(=O)N3CCOCC3)c1Cl)S2(=O)=O [Example 1U]
